# Measurements: patent US8003785B2 (Takeda Pharmaceutical Company Limited, priority 2008, dated 2011)
# Target: T1, PLK1 (Homo sapiens, UniProt P53350)
# T1 construct: Full-length, active GST-PLK1 is purified from Sf9 insect cells; made in house; host or cells: Sf9 insect cells
# Experiment: Biochemical Characterization Assay: HTRF kinase assay, GST-PLK1 phosphorylation of GST-p53
# Conditions: GST-PLK1, GST-p53 substrate, ATP
# How it was run: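 Full-length active GST-PLK1 (Sf9, 3 ug/mL) phosphorylated full-length GST-p53 (E. coli) in Kinase Assay Buffer for 35 min at 37 °C. Stopped with EDTA; phospho-p53 detected by HTRF with anti-phospho-p53, Eu-anti-rabbit and APC-anti-GST antibodies.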
# T1 sequence (P53350 whole entry): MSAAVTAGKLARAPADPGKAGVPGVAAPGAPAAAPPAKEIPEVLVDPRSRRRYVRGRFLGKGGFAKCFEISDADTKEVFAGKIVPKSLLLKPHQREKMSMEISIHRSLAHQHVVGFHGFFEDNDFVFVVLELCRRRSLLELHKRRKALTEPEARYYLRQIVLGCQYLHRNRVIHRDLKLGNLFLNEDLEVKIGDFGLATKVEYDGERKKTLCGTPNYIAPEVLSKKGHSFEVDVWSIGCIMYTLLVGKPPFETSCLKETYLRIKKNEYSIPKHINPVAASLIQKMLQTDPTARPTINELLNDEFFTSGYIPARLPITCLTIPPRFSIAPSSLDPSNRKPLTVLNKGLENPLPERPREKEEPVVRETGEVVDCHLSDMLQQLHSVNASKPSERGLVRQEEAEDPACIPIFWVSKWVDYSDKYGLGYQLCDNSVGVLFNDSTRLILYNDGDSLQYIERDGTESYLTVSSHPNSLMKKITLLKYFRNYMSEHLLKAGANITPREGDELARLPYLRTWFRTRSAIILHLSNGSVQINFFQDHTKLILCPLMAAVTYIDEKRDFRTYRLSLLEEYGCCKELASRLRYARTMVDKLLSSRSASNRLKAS
row,IC50 [nM],SMILES
1,1 to 50,"COc1cc(C(=O)NC2CN(C)C2)ccc1Nc1ncc2c(n1)N(C1CCCC1)CC(F)(F)C(=O)N2C [Example I-99, 4-(9-cyclopentyl-7,7-difluoro-5-methyl-6-oxo-6,7,8,9-tetrahydro-5H-pyrimido[4,5-b][1,4]diazepin-2-ylamino)-3-methoxy-N-(1-methyl-azetidin-3-yl)-benzamide]"
2,1 to 50,"COc1cc(C(=O)N[C@H]2CCN(Cc3ccccc3)C2)ccc1Nc1ncc2c(n1)N(C1CCCC1)CC(F)(F)C(=O)N2C [Example I-100, N—((S)-1-benzyl-pyrrolidin-3-yl)-4-(9-cyclopentyl-7,7-difluoro-5-methyl-6-oxo-6,7,8,9-tetrahydro-5H-pyrimido[4,5-b][1,4]diazepin-2-ylamino)-3-methoxy-benzamide]"
3,1 to 50,"COc1cc(C(=O)N[C@@H]2CCN(Cc3ccccc3)C2)ccc1Nc1ncc2c(n1)N(C1CCCC1)CC(F)(F)C(=O)N2C [Example I-101, N—((R)-1-benzyl-pyrrolidin-3-yl)-4-(9-cyclopentyl-7,7-difluoro-5-methyl-6-oxo-6,7,8,9-tetrahydro-5H-pyrimido[4,5-b][1,4]diazepin-2-ylamino)-3-methoxy-benzamide]"
4,1 to 50,"COc1cc(C(=O)NC2CCN(c3ccccn3)CC2)ccc1Nc1ncc2c(n1)N(C1CCCC1)CC(F)(F)C(=O)N2C [Example I-108, 4-(9-cyclopentyl-7,7-difluoro-5-methyl-6-oxo-6,7,8,9-tetrahydro-5H-pyrimido[4,5-b][1,4]diazepin-2-ylamino)-3-methoxy-N-(3,4,5,6-tetrahydro-2H-[1,2′]bipyridinyl-4-yl)-benzamide]"
5,1 to 50,"COc1cc(C(=O)NCc2ccccn2)ccc1Nc1ncc2c(n1)N(C1CCCC1)CC(F)(F)C(=O)N2C [Example I-109, 4-(9-cyclopentyl-7,7-difluoro-5-methyl-6-oxo-6,7,8,9-tetrahydro-5H-pyrimido[4,5-b][1,4]diazepin-2-ylamino)-3-methoxy-N-pyridin-2-ylmethyl-benzamide]"
6,1 to 50,"COc1cc(C(=O)NCc2cccnc2)ccc1Nc1ncc2c(n1)N(C1CCCC1)CC(F)(F)C(=O)N2C [Example I-111, 4-(9-cyclopentyl-7,7-difluoro-5-methyl-6-oxo-6,7,8,9-tetrahydro-5H-pyrimido[4,5-b][1,4]diazepin-2-ylamino)-3-methoxy-N-pyridin-3-yl-methyl benzamide]"
7,1 to 50,"COc1cc(C(=O)NCCC2CCCN2C)ccc1Nc1ncc2c(n1)N(C1CCCC1)CC(F)(F)C(=O)N2C (stereo not shown) [Example I-112, 4-(9-cyclopentyl-7,7-difluoro-5-methyl-6-oxo-6,7,8,9-tetrahydro-5H-pyrimido[4,5-b][1,4]diazepin-2-ylamino)-3-methoxy-N-[2-(1-methyl-pyrrolidin-2-yl)-ethyl]-benzamide]"
8,1 to 50,"COc1cc(C(=O)NCCCN2CCCC2=O)ccc1Nc1ncc2c(n1)N(C1CCCC1)CC(F)(F)C(=O)N2C [Example I-113, 4-(9-cyclopentyl-7,7-difluoro-5-methyl-6-oxo-6,7,8,9-tetrahydro-5H-pyrimido[4,5-b][1,4]diazepin-2-ylamino)-3-methoxy-N-[3-(2-oxo-pyrrolidin-1-yl)-propyl]-benzamide]"
9,1 to 50,"COc1cc(C(=O)NCCN2CCCCC2)ccc1Nc1ncc2c(n1)N(C1CCCC1)CC(F)(F)C(=O)N2C [Example I-114, 4-(9-cyclopentyl-7,7-difluoro-5-methyl-6-oxo-6,7,8,9-tetrahydro-5H-pyrimido[4,5-b][1,4]diazepin-2-ylamino)-3-methoxy-N-(2-piperidin-1-yl-ethyl)-benzamide]"
10,1 to 50,"COc1cc(C(=O)NCCc2ccccn2)ccc1Nc1ncc2c(n1)N(C1CCCC1)CC(F)(F)C(=O)N2C [Example I-116, 4-(9-cyclopentyl-7,7-difluoro-5-methyl-6-oxo-6,7,8,9-tetrahydro-5H-pyrimido[4,5-b][1,4]diazepin-2-ylamino)-3-methoxy-N-(2-pyridin-2-yl-ethyl)-benzamide]"
11,1 to 50,"COc1cc(C(=O)NCCN2CCOCC2)ccc1Nc1ncc2c(n1)N(C1CCCC1)CC(F)(F)C(=O)N2C [Example I-117, 4-(9-cyclopentyl-7,7-difluoro-5-methyl-6-oxo-6,7,8,9-tetrahydro-5H-pyrimido[4,5-b][1,4]diazepin-2-ylamino)-3-methoxy-N-(2-morpholin-4-yl-ethyl)-benzamide]"
12,51 to 500,"COc1cc(C(=O)NCCNc2ccccc2)ccc1Nc1ncc2c(n1)N(C1CCCC1)CC(F)(F)C(=O)N2C [Example I-119, 4-(9-cyclopentyl-7,7-difluoro-5-methyl-6-oxo-6,7,8,9-tetrahydro-5H-pyrimido[4,5-b][1,4]diazepin-2-ylamino)-3-methoxy-N-(2-phenylamino-ethyl)-benzamide]"

# The next lines start with the compound.
row,SMILES,IC50 [nM]
1,"COc1cc(C(=O)NCCCN2CCNCC2)ccc1Nc1ncc2c(n1)N(C1CCCC1)CC(F)(F)C(=O)N2C [Example I-95, 4-(9-cyclopentyl-7,7-difluoro-5-methyl-6-oxo-6,7,8,9-tetrahydro-5H-pyrimido[4,5-b][1,4]diazepin-2-ylamino)-3-methoxy-N-(3-piperazin-1-yl-propyl)-benzamide]",1 to 50
2,"COc1cc(C(=O)NCCCN2CCN(CCO)CC2)ccc1Nc1ncc2c(n1)N(C1CCCC1)CC(F)(F)C(=O)N2C [Example I-96, 4-(9-cyclopentyl-7,7-difluoro-5-methyl-6-oxo-6,7,8,9-tetrahydro-5H-pyrimido[4,5-b][1,4]diazepin-2-ylamino)-N-{3-[4-(2-hydroxy-ethyl)-piperazin-1-yl]-propyl}-3-methoxy-benzamide]",1 to 50
3,"COc1cc(C(=O)N[C@H]2CC[C@@H](NC(=O)OC(C)(C)C)CC2)ccc1Nc1ncc2c(n1)N(C1CCCC1)CC(F)(F)C(=O)N2C [Example I-97, cis-{4-[4-(9-cyclopentyl-7,7-difluoro-5-methyl-6-oxo-6,7,8,9-tetrahydro-5H-pyrimido[4,5-b][1,4]diazepin-2-ylamino)-3-methoxy-benzoylamino]-cyclohexyl}-carbamic acid tert-butyl ester]",51 to 500
4,"COc1cc(C(=O)N[C@H]2CC[C@@H](N)CC2)ccc1Nc1ncc2c(n1)N(C1CCCC1)CC(F)(F)C(=O)N2C [Example I-98, cis-N-(4-amino-cyclohexyl)-4-(9-cyclopentyl-7,7-difluoro-5-methyl-6-oxo-6,7,8,9-tetrahydro-5H-pyrimido[4,5-b][1,4]diazepin-2-ylamino)-3-methoxy-benzamide]",1 to 50
5,"COc1cc(C(=O)NC2CCN(C(C)=O)CC2)ccc1Nc1ncc2c(n1)N(C1CCCC1)CC(F)(F)C(=O)N2C [Example I-102, N-(1-acetyl-piperidin-4-yl)-4-(9-cyclopentyl-7,7-difluoro-5-methyl-6-oxo-6,7,8,9-tetrahydro-5H-pyrimido[4,5-b][1,4]diazepin-2-ylamino)-3-methoxy-benzamide]",1 to 50
6,"COc1cc(C(=O)N[C@@H]2CN(C(=O)OC(C)(C)C)C[C@H]2O)ccc1Nc1ncc2c(n1)N(C1CCCC1)CC(F)(F)C(=O)N2C [Example I-103, (3R,4R)-3-[4-(9-cyclopentyl-7,7-difluoro-5-methyl-6-oxo-6,7,8,9-tetrahydro-5H-pyrimido[4,5-b][1,4]diazepin-2-ylamino)-3-methoxy-benzoylamino]-4-hydroxy-pyrrolidine-1-carboxylic acid tert-butyl ester]",1 to 50
7,"COc1cc(C(=O)N[C@@H]2CNC[C@H]2O)ccc1Nc1ncc2c(n1)N(C1CCCC1)CC(F)(F)C(=O)N2C [Example I-104, 4-(9-cyclopentyl-7,7-difluoro-5-methyl-6-oxo-6,7,8,9-tetrahydro-5H-pyrimido[4,5-b][1,4]diazepin-2-ylamino)-N-((3R,4R)-4-hydroxy-pyrrolidin-3-yl)-3-methoxy-benzamide]",1 to 50
8,"COc1cc(C(=O)NCCCN2CCC(O)CC2)ccc1Nc1ncc2c(n1)N(C1CCCC1)CC(F)(F)C(=O)N2C [Example I-105, 4-(9-cyclopentyl-7,7-difluoro-5-methyl-6-oxo-6,7,8,9-tetrahydro-5H-pyrimido[4,5-b][1,4]diazepin-2-ylamino)-N-[3-(4-hydroxy-piperidin-1-yl)-propyl]-3-methoxy-benzamide]",1 to 50
9,"COc1cc(C(=O)NC2CN3CCC2CC3)ccc1Nc1ncc2c(n1)N(C1CCCC1)CC(F)(F)C(=O)N2C [Example I-106, N—(R)-1-aza-bicyclo[2.2.2]oct-3-yl-4-(9-cyclopentyl-7,7-difluoro-5-methyl-6-oxo-6,7,8,9-tetrahydro-5H-pyrimido[4,5-b][1,4]diazepin-2-ylamino)-3-methoxy-benzamide]",1 to 50
10,"COc1cc(C(=O)N[C@@H]2CN3CCC2CC3)ccc1Nc1ncc2c(n1)N(C1CCCC1)CC(F)(F)C(=O)N2C [Example I-107, N—(S)-1-aza-bicyclo[2.2.2]oct-3-yl-4-(9-cyclopentyl-7,7-difluoro-5-methyl-6-oxo-6,7,8,9-tetrahydro-5H-pyrimido[4,5-b][1,4]diazepin-2-ylamino)-3-methoxy-benzamide]",1 to 50
11,"COc1cc(C(=O)NCCCN2CCCCC2C)ccc1Nc1ncc2c(n1)N(C1CCCC1)CC(F)(F)C(=O)N2C (stereo not shown) [Example I-110, 4-(9-cyclopentyl-7,7-difluoro-5-methyl-6-oxo-6,7,8,9-tetrahydro-5H-pyrimido[4,5-b][1,4]diazepin-2-ylamino)-3-methoxy-N-[3-(2-methyl-piperidin-1-yl)-propyl]-benzamide]",1 to 50
12,"COc1cc(C(=O)NN2CCCCC2)ccc1Nc1ncc2c(n1)N(C1CCCC1)CC(F)(F)C(=O)N2C [Example I-115, 4-(9-cyclopentyl-7,7-difluoro-5-methyl-6-oxo-6,7,8,9-tetrahydro-5H-pyrimido[4,5-b][1,4]diazepin-2-ylamino)-3-methoxy-N-piperidin-1-yl-benzamide]",1 to 50
13,"COc1cc(C(=O)NN2CCN(C)CC2)ccc1Nc1ncc2c(n1)N(C1CCCC1)CC(F)(F)C(=O)N2C [Example I-118, 4-(9-cyclopentyl-7,7-difluoro-5-methyl-6-oxo-6,7,8,9-tetrahydro-5H-pyrimido[4,5-b][1,4]diazepin-2-ylamino)-3-methoxy-N-(4-methyl-piperazin-1-yl) benzamide]",1 to 50
